Patent US8466259B2, “Adjuvants” (National Health Research Institutes, priority 2007, dated 2013)

Columns and labels:
[1] = molecular target: T1, TLR2 (Homo sapiens, UniProt O60603); assay: NF-kB luciferase reporter assay in TLR2-transfected HEK293 cells; format: cell-based
T1 construct: FLAG; host or cells: HEK293
Procedure: HEK293 cells were plated onto 24-well plates (2×10^5 cells/well) and cotransfected with 0.1 μg of pFLAG-TLR2, 0.01 μg of pNF-kB-luc, and 0.01 μg of the pRL-TK internal control plasmid (Promega, Madison, Wis.) using lipofectamine 2000 (Invitrogen, Carlsbad, Calif.). After 24 h, the transfected cells were stimulated with various synthetic lipopeptide or recombinant proteins for 24 h. The cells were lysed so that the luciferase activity could be measured using a dual-luciferase reporter assay system (Promega Co., Madison, Wis.). Firefly-luciferase activities were related to Renilla-luciferase activities for the purposes of normalization. Both firefly and Renilla luciferase activities were monitored using a Berthold Orion II luminometer (Pforzheim, Germany).

[2] = test system: bone marrow-derived dendritic cells; assay: lipo-Nter stimulation of BM-DCs, cytokine ELISA (Example 4); format: cell-based, mouse; details: lipo-Nter 100 nM
Procedure: BM-DCs were harvested as previously described (Lutz et al., 1999). Briefly, femurs and tibiae of 6-8 week old female mice were removed, and the bone marrow cells were dispersed by vigorous pipetting. After removing red blood cells with lysis buffer, the isolated bone marrow cells were resuspended to a density of 2−5×10^5/ml cells with RPMI-10: RPMI-1640 (GIBCO BRL, Grand Island, N.Y.) supplemented with 10% P/S, L-glutamine (2 mM, Sigma), 2-mercaptoethanol (50 μM, Sigma), and 10% heat-inactivated FBS. On days 0, 3, and 6, bone marrow cells were added to Petri dishes containing 200 U/mL (20 ng/ml) of recombinant mouse granulocyte macrophage colony stimulating factor (MoGM-CSF, Peprotech, Rocky Hill, N.J.) in RPMI-10. At day 6, either LPS (0.01 μg/ml), lipo-Nter (100 nM) was added. Generally, immature dendritic cells made up 70% of the total cell population. The production of cytokines by BM-DCs was determined using ELISA. Briefly, 100 μL of anti-cytokine (10 μg/ml of IL-12p40, TNF-α) antibodies (R&D system Inc. Minneapolis, Minn.) were coated onto 96-well microtiter plates with 0.1 M carbonate buffer, pH 9.6, following overnight incubation at 4° C. […] The plates were read at 450 nm using an ELISA plate reader (Molecular Devices, CA). The production levels of the cytokines were calculated by subtracting the values obtained for non-stimulated groups.

[3] = test system: rE7m; assay: Anti-E7m IgG ELISA after immunization of mice with rE7m with or without lipo-Nter (Example 5); format: in vivo, mouse; details: subcutaneous, combined with 20 μg rE7m, two immunizations at two-week intervals
Procedure: Five mice (6-8 weeks old) were immunized subcutaneously with 20 μg of rE7m with or without lipo-Nter. The mice were given two immunizations at two-week intervals. Blood was collected from each mouse at different time points as indicated. Sera were prepared and stored at −80° C. until use. The level of anti-E7m IgG in the serum samples was determined by titrating the samples in 96-well plates coated with purified rE7m. Bound IgG was detected with horseradish peroxidase-conjugated goat anti-mouse IgG Fc. After the addition of TMB, the absorbance was measured with an ELISA reader at 450 nm.

[4] = test system: TC-1 cells (expressed HPVE7 cells); assay: TC-1 tumor growth inhibition, rE7m with or without lipo-Nter (Example 6); format: in vivo, mouse; details: mice with TC-1 tumors, immunized once subcutaneously at day 7, combined with 20 μg rE7m
Procedure: In this example, assays were conducted to examiner whether the lipo-Nter combined with rE7m can increase the tumor growth inhibition ability. Six mice (6-8 weeks old) were inoculated with 2×10^5 TC-1 cells (expressed HPVE7 cells) at day 0. After 7 days, mice were immunized once subcutaneously with 20 μg of rE7m with or without lipo-Nter. The tumor size was monitored every 2-3 days until tumor volumes higher than 3000 mm^3. The tumor volumes were calculated based on the formula length×width×width/2.

[5] = test system: TC-1 cells (expressed HPVE7 cells); assay: TC-1 tumor growth inhibition, E7-derived peptide RAH with Pam3 or lipo-Nter (Example 7); format: in vivo, mouse; details: mice with TC-1 tumors, immunized once subcutaneously at day 7, combined with 20 μg E7-derived peptide RAH
Procedure: Six mice (6-8 weeks old) were inoculated with 2×10^5 TC-1 cells (expressed HPVE7 cells) at day 0. After 7 days, mice were immunized once subcutaneously with 20 μg of E7-derived peptide in the presence of tripamitoylated peptide Pam3 or lipo-Nter. The tumor size was monitored every 2-3 days until tumor volumes higher than 3000 mm^3. The tumor volumes were calculated based on the formula length×width×width/2.

[6] = test system: p38, ERK1/2 and JNK1/2 in BM-DCs; assay: Western blot analysis of p38, ERK1/2, JNK1/2 phosphorylation in BM-DCs; format: cell-based, mouse; details: 100 nM
Procedure: The BM-DCs were grown in DMEM or RPMI medium without FBS for 16-18 h and then stimulated with 100 nM of the indicated lipopeptides or lipoprotein for 10, 20, 40, 60, 90, or 120 minutes at 37° C. These treated BM-DCs were then lysed in 25 mM HEPES, 150 mM NaCl, 1 mM EDTA, 1 mM EGTA, 10% glycerol, 1% Triton X-100, 10 mM sodium pyrophosphate, 20 mM b-glycerophosphate, Na3VO4, 10 mM NaF, […], and 1 mM PMSF. The concentration of the protein lysates was determined using the BCA protein assay kit (Pierce, Rockford, Ill.). Fifty microgram of lysates were electrophoresed per lane of a 10% SDS-PAGE gel. After the resolved lysates in the gel were transferred to a PVDF membrane, the membranes were blocked with 5% milk and 0.05% Tween-20. The membranes were incubated with antibodies against p38, pp38, pERK1/2, or pJNK1/2 in 5% w/v BSA, 1×PBS and 0.1% Tween-20. Anti-p38 antibody was used as a control for the protein loading level in each lane. The membrane was developed using the LumiGLO® Chemiluminescent Substrate system (Millipore, Billerica, Mass.). The total p38 level was used for normalization, and the induction of pp38 was determined using image analysis software (Image J1.41, NIH, Bethesda, Md.). Relative phosphorylation was calculated as the (density of pp38/density of p38)×100.

[7] = test system: BM-DCs; assay: Real-time quantitative PCR of cytokine/chemokine gene expression in BM-DCs; format: cell-based, mouse; details: 100 nM, 2 or 4 hours
Procedure: The BM-DCs were purified using the Dynabeads® Mouse DC Enrichment Kit (Invitrogen Dynal AS, Oslo, Norway) according to the manufacturer's instructions to 60 90%. The purified BM-DCs were stimulated using medium alone, or with 100 nM of Pam3, BPPcysPEG or rlipo-D1E3, at 37° C. for 2 or 4 hours. Total RNA was extracted from the isolated cells using the RNeasy mini kit (Qiagen, Valencia, Calif.) following the manufacturer's instructions. RNA (0.5-1 μg) was reverse-transcribed to cDNA using an oligo-dT primer in a 20 μl volume and SuperScript III RT (Invitrogen, Carlsbad, Calif.). The mouse Universal Probe Library (UPL) set (Roche, Mannheim, Germany) was used to perform the real-time qPCR assay for gene expression in isolated cell populations (Liu et al. (2007) J Leukoc Biol 82, 354-360.).
The reaction mixture contained 5 ng cDNA, 0.2 μM primers, and LightCycler 480 Probe Master (Roche), and the reagents were reacted in a LightCycler 480 system (Roche). All qPCRs were carried out using an initial denaturation step at 95° C. for 10 min, followed by 45 cycles of 95° C. for 10 s, 60° C. for 20 s, and 72° C. for 2 s. Target gene expression was normalization to HPRT gene expression. The relative gene expression levels were calculated by comparing the expression levels after treatment with various stimulators to those obtained using medium alone. […]

T1 sequence (O60603 21-784): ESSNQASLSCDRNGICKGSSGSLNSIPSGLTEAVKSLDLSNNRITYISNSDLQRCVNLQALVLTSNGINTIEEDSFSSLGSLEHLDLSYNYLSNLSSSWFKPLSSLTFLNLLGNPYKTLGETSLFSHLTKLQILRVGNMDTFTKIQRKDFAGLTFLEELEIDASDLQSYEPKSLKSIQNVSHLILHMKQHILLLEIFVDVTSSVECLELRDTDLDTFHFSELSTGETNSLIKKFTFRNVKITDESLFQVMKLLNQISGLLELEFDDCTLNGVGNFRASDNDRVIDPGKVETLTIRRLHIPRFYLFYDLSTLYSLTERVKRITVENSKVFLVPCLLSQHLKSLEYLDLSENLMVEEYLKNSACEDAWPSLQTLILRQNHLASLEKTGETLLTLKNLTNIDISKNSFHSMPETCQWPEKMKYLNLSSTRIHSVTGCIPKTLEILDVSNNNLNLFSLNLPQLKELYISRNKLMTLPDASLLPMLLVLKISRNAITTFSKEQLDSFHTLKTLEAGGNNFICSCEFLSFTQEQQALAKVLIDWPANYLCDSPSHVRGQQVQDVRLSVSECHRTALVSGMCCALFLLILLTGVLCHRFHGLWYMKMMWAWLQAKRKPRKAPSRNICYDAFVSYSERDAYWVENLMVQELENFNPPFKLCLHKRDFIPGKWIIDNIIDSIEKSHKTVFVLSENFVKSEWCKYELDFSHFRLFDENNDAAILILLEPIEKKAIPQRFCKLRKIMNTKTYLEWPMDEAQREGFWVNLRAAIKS

Substance | activation of NF-κB signaling through TLR2 ([1]; purified lipo-Nter) | secretion of TNF-α and IL-12p40 [2] | anti-E7 antibody (anti-E7m IgG in serum) [3] | anti-tumor activity (tumor volume) [4] | tumor growth inhibition (tumor volume) [5] | NF-κB signaling activities ([1]; at 0.1 or 1 nM concentration, compared among Pam3, rlipo-D1E3 and BPPcysPEG) | dose response of TLR2-dependent NF-κB activation ([1]; range from 1 μM to 100 nM) | time after which phosphorylation dropped down to basal levels [6] | level of the phosphorylation of p38, ERK1/2, JNK1/2 ([6]; compared with Pam3 and rlipo-D1E3) | time of highest induced level of phosphorylation of p38, ERK1/2 and JNK1/2 ([6]; measured 0-120 min) | IL-10, TGFβ and CXCL1 expression levels ([7]; compared among Pam3, BPPcysPEG and rlipo-D1E3) | expression levels of IL-13 ([7]; compared to Pam3)
N-acyl-S-diacylglyceryl-CSQEAK [lipo-Nter] | activate NF-κB signaling through TLR2 | stimulated bone marrow-derived dendritic cells to secrete TNF-α and IL-12p40 | enhanced anti-E7 antibody | anti-tumor activity stronger than that of rE7m alone | could inhibit tumor growth | – | – | – | – | – | – | –
S-[2,3-bispalmitoyloxy-[2R]-propyl-[R]-cysteinyl-amido polyethyleneglycol [BPPcysPEG] | – | – | – | – | – | highest NF-κB signaling activities | stronger activation of TLR2 | 60 min | higher level | 10 min | similar | higher expression levels
